IC50 data for 34 molecules are collected here from patent US20170291905A1, “ARGININE […] INHIBITORS AND USES THEREOF” (Epizyme, Inc., priority 2014, published 2017).

pIC50: −log10 of the molar value. Counter-ions that a name gives are not always drawn. A value given as a limit tells only on which side of the number the result lay.

Chain of full-length human PRMT6 (Flag- and His-tagged) (Q96LA8 with tags, fused parts or gaps): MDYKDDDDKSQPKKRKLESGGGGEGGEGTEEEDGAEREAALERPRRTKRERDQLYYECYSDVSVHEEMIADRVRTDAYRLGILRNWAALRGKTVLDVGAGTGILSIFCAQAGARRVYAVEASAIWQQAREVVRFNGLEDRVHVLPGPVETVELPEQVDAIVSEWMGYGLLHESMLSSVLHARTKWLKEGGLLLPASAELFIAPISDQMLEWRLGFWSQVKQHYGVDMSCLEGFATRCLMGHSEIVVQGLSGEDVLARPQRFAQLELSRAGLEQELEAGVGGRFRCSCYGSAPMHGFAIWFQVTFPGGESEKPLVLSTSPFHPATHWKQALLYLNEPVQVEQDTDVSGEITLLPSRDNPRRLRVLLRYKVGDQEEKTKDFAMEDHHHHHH

The experiment has as its target full-length human PRMT6 (Flag- and His-tagged) (Homo sapiens, UniProt Q96LA8). Description: PRMT6 biochemical assay (3H-SAM Flashplate, histone H4 36-50 K44me1 peptide). Particulars: 1 nM PRMT6, 30 min preincubation, 75 nM peptide. The text has this:
S-adenosylmethionine (SAM), S-adenosylhomocysteine (SAH), bicine, Tween20, dimethylsulfoxide (DMSO), bovine skin gelatin (BSG), sodium butyrate and Tris(2-carboxyethyl)phosphine hydrochloride solution (TCEP) were purchased from Sigma-Aldrich at the highest level of purity possible. ^3H-SAM was purchase from American Radiolabeled Chemicals with a specific activity of 80 Ci/mmol. 384-well streptavidin Flashplates were purchased from PerkinElmer.
Peptide representative of human histone H4 residues 36-50 was synthesized with an N-terminal linker-affinity tag motif and a C-terminal amide cap by 21st Century Biochemicals. The peptide was purified by high-performance liquid chromatography (HPLC) to greater than 95% purity and confirmed by liquid chromatography mass spectrometry (LC-MS). The sequence was Biot-Ahx-[…]-amide and contained a monomethylated lysine at position 44 (SEQ ID NO.:5).
Full-length human PRMT6 (NM_018137.2) transcript clone was amplified from an HEK 293 cDNA library, incorporating a flanking 5′ sequence encoding a FLAG tag ([…]) (SEQ ID NO.:6) fused directly to Ser 2 of PRMT6 and a 3′ sequence encoding a hexa His sequence (HHHHHH) (SEQ ID NO.: 17) fused directly to Asp 375. The amplified gene was subcloned into pFastBacMam (Viva Biotech).
Recombinant baculovirus were generated according to Bac-to-Bac kit instructions (Life Technologies). […] Infections were carried out at 37° C. for 48 hours, harvested by centrifugation, and stored at −80° C. for purification.
Column was washed with 20 mM imidazole in the same buffer and Flag-PRMT6-His was eluted with 150 mM imidazole. Pooled fractions were dialysed against buffer Ni-A and further purified by anti-flag M2 affinity chromatography. Flag-PRMT6-His was eluted with 200 ug/ml FLAG peptide in the same buffer. Pooled fractions were dialysed in 20 mM Tris, 150 mM NaCl, 10% glycerol and 5 mM β-mercaptoethanol, pH 7.8. The purity of recovered protein was 95%.
General Procedure for PRMT6 Enzyme Assays on Peptide Substrates.
The assays were all performed in a buffer consisting of 20 mM Bicine (pH=7.6), 1 mM TCEP, 0.005% BSG, and 0.002% Tween 20, prepared on the day of use. Compounds in 100% DMSO (1 ul) were spotted into a polypropylene 384-well V-bottom plates (Greiner) using a Platemate Plus outfitted with a 384-channel head (Thermo Scientific). DMSO (1 ul) was added to Columns 11, 12, 23, 24, rows A-H for the maximum signal control and 1 ul of SAH, a known product and inhibitor of PRMT6, was added to columns 11, 12, 23, 24, rows I-P for the minimum signal control. A cocktail (40 ul) containing the PRMT6 enzyme was added by Multidrop Combi (Thermo-Fisher). The compounds were allowed to incubate with PRMT6 for 30 min at room temperature, then a cocktail (10 ul) containing SAM and peptide was added to initiate the reaction (final volume=51 ul). The final concentrations of the components were as follows: PRMT6 was 1 nM, ^3H-SAM was 200 nM, non-radiolabeled SAM was 250 nM, peptide was 75 nM, SAH in the minimum signal control wells was 1 mM, and the DMSO concentration was 2%. The assays were stopped by the addition of non-radiolabeled SAM (10 ul) to a final concentration of 400 uM, which dilutes the ^3H-SAM to a level where its incorporation into the peptide substrate is no longer detectable. 50 ul of the reaction in the 384-well polypropylene plate was then transferred to a 384-well Flashplate and the biotinylated peptides were allowed to bind to the streptavidin surface for at least 1 hour before being washed once with 0.1% Tween20 in a Biotek ELx405 plate washer. The plates were then read in a PerkinElmer TopCount plate reader to measure the quantity of ^3H-labeled peptide bound to the Flashplate surface, measured as disintegrations per minute (dpm) or alternatively, referred to as counts per minute (cpm).
Where dpm=disintegrations per minute, cmpd=signal in assay well, and min and max are the respective minimum and maximum signal controls. […]
`CCC1(CC)C[C@]2(CC[C@@H](c3n[nH]cc3CN(C)CCNC)CC2)OC1=O` [compound 34, (5r,8r)-3,3-diethyl-8-(4-((methyl(2-(methylamino)ethyl)amino)methyl)-1H-pyrazol-3-yl)-1-oxaspiro[4.5]decan-2-one] had a pIC50 of 7.97.

Turning to `CNCCN(C)Cc1nn[nH]c1[C@H]1CC[C@@]2(CC1)CC(C)(C)CO2` [compound 67], the pIC50 is 7.29. As for `CNCCN(C)Cc1nn[nH]c1[C@H]1CC[C@]2(CC1)CC(C)(C)CO2` [compound 89], the pIC50 was 6.37. For the molecule `CC[C@]12CC[C@](CC)(C[C@H](c3n[nH]cc3CN(C)CCNC)C1)O2` [compound 37, N1-((3-((1R,3r,5S)-1,5-diethyl-8-oxabicyclo[3.2.1]octan-3-yl)-1H-pyrazol-4-yl)methyl)-N1,N2-dimethylethane-1,2-diamine], the pIC50 is 6.89. `CNCCN(C)Cc1c[nH]nc1C1C[C@H](C(=O)NCCOC)C(C)(C)[C@H](C(=O)NCCOC)C1` (stereo partly shown) [compound 13] had a pIC50 of under 5.00.

With `CCN(C)C(=O)C1CC(c2n[nH]cc2CN(C)CCNC)CC(C(=O)NCCC(C)C)C1(C)C` (stereo not shown) [compound 14, N1-ethyl-N3-isopentyl-N1,2,2-trimethyl-5-(4-((methyl(2-(methylamino)ethyl)amino)methyl)-1H-pyrazol-3-yl)cyclohexane-1,3-dicarboxamide], the pIC50 is under 5.00.

`CNCCN(C)Cc1c[nH]nc1[C@H]1CC[C@@]2(CCN(CCC(C)C)C2=O)CC1` [compound 11, (5r,8r)-2-isopentyl-8-(4-((methyl(2-(methylamino)ethyl)amino)methyl)-1H-pyrazol-3-yl)-2-azaspiro[4.5]decan-1-one] showed a pIC50 of 7.73. `CNCCN(C)Cc1sc(C)nc1[C@H]1CC[C@@]2(CC1)CC(C)(C)CO2` [compound 78] gave a pIC50 of 7.01.

The molecule `CNCCN(C)Cc1c(C)noc1[C@H]1CC[C@@]2(CC1)CC(C)(C)CO2` [compound 113] showed a pIC50 of 5.94. For `CNCCN(C)Cc1nn(C)nc1C1CCC2(CC1)CC(C)(C)CO2` (stereo not shown) [compound 86] the value was 6.35. Regarding `CNCCN(C)Cc1nccn1[C@H]1CC[C@]2(CC1)CC(C)(C)CO2` [compound 91], the pIC50 was under 5.00. Take `Cc1[nH]nc([C@H]2CC[C@@]3(CC2)CC(C)(C)CO3)c1CN(C)CCN` [compound 51, N1-((3-((5s,8s)-3,3-dimethyl-1-oxaspiro[4.5]decan-8-yl)-5-methyl-1H-pyrazol-4-yl)methyl)-N1-methylethane-1,2-diamine]: the pIC50 was 6.81. In the case of `CNCCN(C)Cc1nn(C)cc1[C@H]1CC[C@]2(CC1)CC(C)(C)CO2` [compound 103] it was 6.39; in that of `CNCCN(C)Cc1c(C)noc1[C@H]1CC[C@]2(CC1)CC(C)(C)CO2` [compound 114], 5.68; in that of `CCOCC1(COCC)CCC(c2n[nH]cc2CN(C)CCN(C)C)CC1` [compound 121], 7.10. `CNCCN(C)Cc1c[nH]nc1C1CCC(OCCCOC)C2(CCCC2)C1` (mixture of isomers) [compound 19, N1-((3-(10-(3-methoxypropoxy)spiro[4.5]decan-7-yl)-1H-pyrazol-4-yl)methyl)-N1,N2-dimethylethane-1,2-diamine dihydrochloride] showed a pIC50 of 6.72.

`CNCCN(C)Cc1c[nH]nc1[C@H]1CC[C@@]2(CCCOC2)CC1` [compound 5, N1-((3-((6r,9r)-2-oxaspiro[5.5]undecan-9-yl)-1H-pyrazol-4-yl)methyl)-N1,N2-dimethylethane-1,2-diamine] showed a pIC50 of 7.44. In the case of `CN(CCN)Cc1nn(C)cc1[C@H]1CC[C@@]2(CC1)CC(C)(C)CO2` [compound 80] it was 6.46. In the case of `CNCCN(C)Cc1c[nH]nc1[C@H]1CC[C@]2(CCCOC2)CC1` [compound 4, N1-((3-((6s,9s)-2-oxaspiro[5.5]undecan-9-yl)-1H-pyrazol-4-yl)methyl)-N1,N2-dimethylethane-1,2-diamine] it was 7.48; in that of `CNCCN(C)Cc1nocc1[C@H]1CC[C@@]2(CC1)CC(C)(C)CO2` [compound 117], 5.88. In the case of `CN(CCN)Cc1c[nH]nc1[C@H]1CC[C@@]2(CC1)CC(C)(C)CO2` [compound 105] it was 7.73. In the case of `CNCCN(C)Cc1c[nH]nc1C1CC(COCC2CC2)CC(COCC2CC2)C1` (stereo not shown) [compound 2], the pIC50 was 6.13. Take `CNCCNCc1c[nH]nc1[C@H]1CC[C@]2(CC1)CC(C)(C)CO2` [compound 29, N1-((3-((5r,8r)-3,3-dimethyl-1-oxaspiro[4.5]decan-8-yl)-1H-pyrazol-4-yl)methyl)-N2-methylethane-1,2-diamine]: the pIC50 was 5.72. `CNCCN(C)Cc1c[nH]nc1C1CCC2(CCC(OC)CC2)CC1` (stereo not shown) [compound 9, N1-((3-(9-methoxyspiro[5.5]undecan-3-yl)-1H-pyrazol-4-yl)methyl)-N1,N2-dimethylethane-1,2-diamine] had a pIC50 of 7.87. In the case of `CNCCN(C)Cc1c[nH]nc1C1C[C@@H](C(=O)N(C)CC(C)C)C(C)(C)[C@H](C(=O)N(C)CC(C)C)C1` (stereo partly shown) [compound 12], the pIC50 is under 5.00. For `CCC1(CC)CC2(CCC(c3n[nH]cc3CN(C)CCNC)CC2)N(C)C1=O` (stereo not shown) [compound 22, 3,3-diethyl-1-methyl-8-(4-((methyl(2-(methylamino)ethyl)amino)methyl)-1H-pyrazol-3-yl)-1-azaspiro[4.5]decan-2-one] the value was 7.20; for `CNCCN(C)Cc1c[nH]nc1[C@H]1CC[C@]2(CCCCO2)CC1` [compound 127, methyl([2-[methyl([3-[(6s,9r)-1-oxaspiro[5.5]undecan-9-yl]-1H-pyrazol-4-yl]methyl)amino]ethyl])amine bistrifluoroacetic acid salt], 7.63; for `CCCOCC1(COCCC)CCC(c2n[nH]cc2CN(C)CCNC)CC1` [compound 36, N^1-((3-(4,4-bis(propoxymethyl)cyclohexyl)-1H-pyrazol-4-yl)methyl)-N^1,N^2-dimethylethane-1,2-diamine], 7.83. In the case of `CNCCN(C)Cc1c[nH]nc1[C@H]1CC[C@H](COCC(F)(F)F)CC1` [compound 24, N1,N2-dimethyl-N1-((3-((1r,4r)-4-((2,2,2-trifluoroethoxy)methyl)cyclohexyl)-1H-pyrazol-4-yl)methyl)ethane-1,2-diamine] it was 7.67. For `CNCCN(C)Cc1c[nH]nc1[C@@H]1CC[C@H](OCCCOC)C2(CCCC2)C1` (racemic) [compound 27, N1-((3-((7R,10S)-10-(3-methoxypropoxy)spiro[4.5]decan-7-yl)-1H-pyrazol-4-yl)methyl)-N1,N2-dimethylethane-1,2-diamine] the value was 6.42; for `CNCCN(C)Cc1c(C)[nH]nc1[C@H]1CC[C@@]2(CC1)CC(C)(C)CO2` [compound 57], 7.03. Take `CNCCN(C)Cc1scnc1[C@H]1CC[C@]2(CC1)CC(C)(C)CO2` [compound 84]: the pIC50 was 7.05. In the case of `CNCCNCc1c[nH]nc1[C@H]1CC[C@@]2(CC1)CC(C)(C)CO2` [compound 28, N1-((3-((5s,8s)-3,3-dimethyl-1-oxaspiro[4.5]decan-8-yl)-1H-pyrazol-4-yl)methyl)-N2-methylethane-1,2-diamine] it was 6.58. For `CNCCN(C)Cc1c[nH]nc1C1CCC(C)(C)[C@H](COCCOC)C1` (stereo partly drawn) [compound 35, {2-[({3-[(3R)-3-[(2-methoxyethoxy)methyl]-4,4-dimethylcyclohexyl]-1H-pyrazol-4-yl}methyl)(methyl)amino]ethyl}(methyl)amine] the value was 6.91.

One may read the pIC50 as the IC50 on a negative log10 scale, so that one unit is a factor of ten. A lower pIC50 goes with a large IC50.
